# Assay results from patent US11642344B2, “Cholesteryl ester transfer protein (CETP) inhibitor and pharmaceutical compositions comprising said inhibitor for use in the treatment or prevention of cardiovascular diseases” (NewAmsterdam Pharma B.V., priority 2014, dated 2023).
# Like-named read-outs stand apart in the source and are kept apart here.
# Assays:
# [1] = cited from earlier work; for mineralocorticoid activity: data from phase 2 studies; for off-target effects (in words): clinical trials
# [2] = tested on: HDL-C, LDL-C; details: cited from earlier work
# [3] = tested on: CETP; assay: Ex vivo serum CETP activity after oral administration to hamsters; parameters: species or system Syrian Golden hamsters; details: 3 mg/kg oral, suspension in 0.5% CMC, serum 3 hours after administration
# Experimental: Syrian Golden hamsters were used for the experiment after 1-week acclimatization. After an overnight fast, animals were orally given the compound suspension in 0.5% sodium carboxymethylcellulose in a volume of 10 mL/kg. Under deep anesthesia with ether, blood was collected from the abdominal aorta 3 hours after the administration. For preparation of serum, the collected blood was transferred to a plastic tube containing a clot activator, left still for 15 minutes at room temperature and centrifuged. Serum CETP activities were determined immediately.
# Ninety-five μL serum were added to 5 μL of […] sodium phosphate buffered saline (pH 7.0) containing 1.5 mM 5,5′-dithio-bis(2-nitrobenzoic acid) in two 96-well V-bottom plates. One plate was incubated at 4° C. and the other was incubated at 37° C. After 18 hours of incubation, each sample was mixed with 100 μL of reagent for precipitation of apolipoprotein B-containing lipoproteins (phosphotungstate/MgCl2 reagent, Wako pure chemical), left still for 10 minutes at room temperature and centrifuged. Total cholesterol (TC) and free cholesterol (FC) in supernatant were measured using commercial kits (Cholesterol E-test wako, and Free Cholesterol E-test wako; Wako pure chemical). Cholesteryl ester (CE) was calculated by subtracting FC from TC. CETP activity was determined by the following formula: CETP activity=[CETP transfer]*/[CE value in 4° C. incubation sample] *CETP transfer=[CE value in 4° C. incubation sample]−[CE value in 37° C. incubation sample] (c) Results
# [4] = target: T1, CETP (Homo sapiens, UniProt P11597); assay: In vitro CETP assay: 3H-labeled CE transfer from HDL to VLDL/LDL in human plasma; format: biochemical; details: 24 h pre-incubation at 37° C.
# T1 construct: from tissue; host or cells: plasma of Caucasian male subjects dosed with Compound A or placebo
# T1 sequence (P11597 18-493): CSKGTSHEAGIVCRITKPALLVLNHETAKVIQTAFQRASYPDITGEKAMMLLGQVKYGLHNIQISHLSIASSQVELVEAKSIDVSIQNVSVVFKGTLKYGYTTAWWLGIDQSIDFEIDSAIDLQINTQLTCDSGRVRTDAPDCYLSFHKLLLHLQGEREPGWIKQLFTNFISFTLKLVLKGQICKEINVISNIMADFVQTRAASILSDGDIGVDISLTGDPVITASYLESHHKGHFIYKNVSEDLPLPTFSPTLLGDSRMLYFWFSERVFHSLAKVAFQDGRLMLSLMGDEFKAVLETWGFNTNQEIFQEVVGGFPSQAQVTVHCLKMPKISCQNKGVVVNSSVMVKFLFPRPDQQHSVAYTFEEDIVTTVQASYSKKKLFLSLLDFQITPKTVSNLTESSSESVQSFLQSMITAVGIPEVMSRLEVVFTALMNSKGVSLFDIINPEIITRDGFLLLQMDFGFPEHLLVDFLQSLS
# Experimental: Human blood was obtained from healthy male volunteers using 0.1% EDTA as an anticoagulant, and centrifuged at 3,000 rpm for 15 minutes at 4° C. Human plasma was pooled, and then used for the preparation of ^3H-labeled HDL or stored at −80° C. for CETP assay until use. The ^3H-labeled HDL was prepared with human plasma as described by Glenn and Melton (Methods in enzymology. 263; 339-351, 1996). The specific gravity of plasma was measured by a hydrometer, and the density was adjusted to 1.125 g/mL by adding solid KBr. After centrifugation at 100,000 rpm for 4 hours at 12° C. (rotor: 100.4, Optima TLX, Beckman), d>1.125 g/mL fraction was dialyzed against 4 L of Tris-saline-EDTA buffer (TSE; 50 mmol/L Tris, 150 mmol/L NaCl, 2 mmol/L EDTA, pH7.4) for 18 hours at 4° C. [1,2-^3H(N)]-Cholesterol (37 MBq/mL) was added to the dialyzed plasma fraction at the amount of 2 μCi/mL. The tube was tightly sealed under N2 gas stream and incubated at 37° C. for 18 hours with gently stirring to allow esterification of radio-labeled cholesterol by endogenous LCAT. The incubated plasma fraction was adjusted to d=1.21 g/mL with solid KBr, and centrifuged at 100,000 rpm, 12° C. for 5 hours. ^3H-labeled HDL fraction was dialyzed against 2 L of TSE at 4° C. for 18 hours. The radioactivity of ^3H-labeled HDL was counted in a liquid scintillation counter. ^3H-labeled HDL was stored at 4° C. until use.
# CETP activity was determined as the rate of ^3H-labeled CE transfer from donor HDL to acceptor VLDL/LDL. Human plasma (94 μL) was pre-incubated with compounds dissolved in DMSO (1 μL) 24 hours at 37° C., and then incubated for 4 hours at 4° C. or 37° C. with 5 μL of ^3H-labeled HDL. One hundred μL of phosphotungstate/MgCl2 reagent (Wako pure chemical) were added to precipitate apoB-containing lipoproteins. After centrifugation at 3,000 rpm for 10 minutes at room temperature, the radioactivity of the supernatant was counted in a liquid scintillation counter. […] The concentration achieving 50% inhibition of CETP activity (IC50) was estimated.
# [5] = 200 mg once daily, fasted healthy subjects
# [6] = 500 mg once daily monotherapy in patients
smiles,measurement,setting,value
"COc1cc(F)c(C(C)C)cc1-c1ccc(C(F)(F)F)cc1CN1C(=O)O[C@H](c2cc(C(F)(F)F)cc(C(F)(F)F)c2)[C@@H]1C [Anacetrapib, anacetrapib]",mineralocorticoid activity,[1],without mineralocorticoid activity
same,decrease LDL-C,"[2]; 150 mg once daily, patients",40%
same,increase HDL C,"[2]; 150 mg once daily, patients",139%
same,decrease LDL-C,[2]; [5],36%
same,increase HDL C,[2]; [5],97%
"CCC(CC)CC1(C(=O)Nc2ccccc2SC(=O)C(C)C)CCCCC1 [Dalcetrapib, dalcetrapib]",off-target effects (in words),[1],did not appear to exhibit the off-target effects of torcetrapib
same,effects on LDL-C concentrations,[2]; phase 2b clinical trials,minimal effects
same,increase HDL-C,[2]; phase 2b clinical trials,30-40%
"Cc1cc(C)c2c(c1)[C@@H](N(Cc1cc(C(F)(F)F)cc(C(F)(F)F)c1)c1nnn(C)n1)CCCN2C[C@H]1CC[C@H](C(=O)O)CC1 [Evacetrapib, evacetrapib]",mineralocorticoid activity,[1],without mineralocorticoid activity
same,decrease LDL-C,[2]; [6],36%
same,increase HDL-C,[2]; [6],129%
"CCOC(=O)N1c2ccc(C(F)(F)F)cc2[C@@H](N(Cc2cc(C(F)(F)F)cc(C(F)(F)F)c2)C(=O)OC)C[C@H]1CC [Torcetrapib, torcetrapib]",off-target effects (in words),[1],"increased blood pressure, changes in electrolytes"
same,cardiovascular events and death,"[1]; in combination with atorvastatin, compared with atorvastatin alone",unexpected increase in cardiovascular events and death
same,decrease LDL-C,"[2]; dosed at 60 mg, phase 3",25%
same,increase HDL-C,"[2]; dosed at 60 mg, phase 3",72%
CCOC(=O)N1c2ccc(C(F)(F)F)cc2C(N(Cc2cc(C(F)(F)F)cc(C(F)(F)F)c2)c2ncc(OCc3ccc(C(=O)O)cc3)cn2)CC1CC (stereo not drawn) [compound 1],ex vivo (% inhibition) 3 mg/kg (CMC),[3],57.5%
same,IC50,[4],0.21 µM
CCOC(=O)N1c2ccc(C(F)(F)F)cc2[C@@H](N(Cc2cc(C(F)(F)F)cc(C(F)(F)F)c2)c2ncc(OCc3cccc(C(=O)O)c3)cn2)C[C@H]1CC [compound 2],ex vivo (% inhibition) 3 mg/kg (CMC),[3],38.4%
same,IC50,[4],0.23 µM
CCOC(=O)N1c2ccc(C(F)(F)F)cc2C(N(Cc2cc(C(F)(F)F)cc(C(F)(F)F)c2)c2ncc(OCC(=O)NCC(=O)O)cn2)CC1CC (stereo not drawn) [compound 3],ex vivo (% inhibition) 3 mg/kg (CMC),[3],5.4%
same,IC50,[4],0.45 µM
CCOC(=O)N1c2ccc(C(F)(F)F)cc2C(N(Cc2cc(C(F)(F)F)cc(C(F)(F)F)c2)c2ncc(OCC(=O)N(C)CC(=O)O)cn2)CC1CC (stereo not drawn) [compound 4],ex vivo (% inhibition) 3 mg/kg (CMC),[3],8.6%
same,IC50,[4],0.79 µM
CCOC(=O)N1c2ccc(C(F)(F)F)cc2C(N(Cc2cc(C(F)(F)F)cc(C(F)(F)F)c2)c2ncc(OCC(=O)N3CCCC3C(=O)O)cn2)CC1CC (stereo not drawn) [compound 5],ex vivo (% inhibition) 3 mg/kg (CMC),[3],6.2%
same,IC50,[4],1.7 µM
CCOC(=O)N1c2ccc(C(F)(F)F)cc2C(N(Cc2cc(C(F)(F)F)cc(C(F)(F)F)c2)c2ncc(S(=O)(=O)CCCC(=O)O)cn2)CC1CC (stereo not drawn) [compound 6],ex vivo (% inhibition) 3 mg/kg (CMC),[3],13.9%
same,IC50,[4],0.22 µM
